System: HIV-1IIIB
Test: HIV-1IIIB infection of PBMC, p24 ELISA
Assay type: cell-based
Conditions: for concentration at which significant inhibition of HIV-1 infection was detected (as low as): HIV-1IIIB, PBMC; for inhibition of T cell-tropic HIV-1 infection of PBMCs (p24): peptide 1 hr before HIV-1IIIB, p24 after 48 hr, FIG. 4
Protocol: Peripheral blood mononuclear cells were treated with designated concentrations of peptide for a period of 1 hr prior to addition of HIV-1IIIB. After 2 hr, cells were washed, and viral replication was determined after 48 hr by analysis of p24 levels. Results are representative of 4 independent experiments.
PBMCs were obtained from whole blood of normal donors and isolated by Ficoll-Paque Plus (Pharmacia Biotech, Piscataway, N.J.) density gradient centrifugation, and plated at a cell density of 2×10^6 cells/ml. Monocyte-derived macrophages (MDM) were generated from adherent human peripheral blood mononuclear cells by culture for 7 days with M-CSF (100 ng/ml). Cultures were maintained in RPMI-1640 medium (Life Technologies, Rockville, Md.) supplemented with 10% heat-inactivated endotoxin-free FCS (Hyclone, Logan, Utah), 10 μg/ml gentamicin, and 1 mM glutamine. Cells were treated with designated concentrations of the exemplary peptides 15K or 15D, and after 1 hr cells were infected with HIV-1IIIB (T cell tropic) or HIV-1JRFL (monocyte tropic) at an multiplicity of infection (MOI) of 0.1. After 2 hr, cells were washed, and cultured for additional 48-72 hr, followed by analysis of HIV replication as determined by quantification of accumulated p24 in the supernatant. The production of p24 was determined by conventional sandwich ELISA, using ELISA plates pre-coated with capture anti-p24 antibodies provided by the AIDS Vaccine Program (SAIC Frederick, NCI-FCRDC, Frederick, Md.). The captured p24 antigen was detected using rabbit anti-HIV-1 anti-p24 antibody, and a secondary goat anti-rabbit IgG (peroxidase-labeled) antibody. The captured p24 protein was detected using a 3,3′,5,5′-tetramethylbenzidine and hydrogen peroxide detection system (KPL Laboratories, Gaithersburg, Md.). The reaction was read spectrophotometrically at 450 nm. No cytotoxicity was detectable following treatment of PBMC with the peptides even at a concentration of 100 μg/ml.
In view of the foregoing binding inhibition studies, and considering the homology between the 15K and 15D peptides and the CXCR4 ligand SDF-1α, it was further undertaken to determine the capacity of the synthetic peptides to inhibit CXCR4 co-receptor function. In particular, experiments were carried out to assess the ability of 15K or 15D to alter the infection of PBMCs with the T cell-tropic […] strain. […] Significant inhibition of HIV-1 infection was detected with concentrations of peptides as low as 10 ng/ml.

Row | Substance | concentration at which significant inhibition of HIV-1 infection was detected (as low as) [ng/mL] | inhibition of T cell-tropic HIV-1 infection of PBMCs (p24) | anti-HIV-1 activity of 15D in comparison with 15K (some experiments, data not shown, virus strain not stated)
1 | IRKAHCNISRAKWND [Peptide 15K] | 10 | significantly reduced HIV-1 infection | 
2 | I R K A H C N I S R A D W N D [Peptide 15D] | 10 | significantly reduced HIV-1 infection | higher anti-HIV-1 activity

— patent US20060116325A1, “Methods and compositions for inhibiting hiv-coreceptor interactions” (priority 2001, published 2006)
